Data on four compounds can be found in patent US20250250252A1, “PIPERIDINYLBENZONITRILE DERIVATIVES AS INHIBITORS OF GLUTAMINYL-PEPTIDE CYCLOTRANSFERASE AND GLUTAMINYL-PEPTIDE CYCLOTRANSFERASE LIKE PROTEIN” (Boehringer Ingelheim International GmbH, priority 2024, published 2025).

The subject of series [1] is SIRPα signalling induced by A549 cells. Briefly: Assay B: SIRPα signalling assay using A549 cells. It is filed as cell-based. Conditions: Homo sapiens, read-out: Inhibition of SIRPα signalling induced by A549 cells: IC50. On the procedure: Two cell types are independently used: the Raji cell line (lymphoblast-like human cell line derived from B lymphocytes from a Burkitt's lymphoma patient in 1963) and A549 cells (adenocarcinomic human alveolar basal epithelial cells).
Test compounds were dissolved in 100% DMSO and serially diluted into a white 384-well microtiter cell culture plate (PerkinElmer #60076780 in case of Raji assay; PDL-coated plates Greiner #781945 in case of A549 assay). 5000 Raji cells (ATCC #CC86) or 5000 A549 cells (ATCC #CCL-185) in Assay Complete Cell Plating reagent 30 (DiscoverX 93-0563R30B) were added per well. The assay plate was incubated for 48 h at 37° C., 95% humidity and 5% CO2. 15000 reporter cells (Jurkat PathHunter SIRPαV1, DiscoverX #93-1135C19) were added to each well, and the plate was incubated for 5 h at 37° C., 95% humidity and 5% CO2. Bioassay reagent 1 of the PathHunter Bioassay detection kit (DiscoverX 93-0001) was added to each well of the plate using a multichannel pipette followed by a 15 min incubation at room temperature. Afterwards bioassay reagent 2 was added followed by 60 min incubation at room temperature (incubation in the dark).
The analysis of the data was performed using the luminescence signal generated by betagalactosidase in the PathHunter reporter cell line. The luminescence measurement was done using a Pherastar Multi-Mode Reader. Dose-response curves & IC50 data were calculated with 4-parameter sigmoidal dose response formula.

Another series deals with CACO-2 cells. Briefly: Assay C: Permeability in CACO-2 cells. It is filed as in vitro ADME. Conditions: pair comparison without/with 4-fluoropiperidyl. The protocol:
(§1) Caco-2 cells (1-2×10^5 cells/1 cm^2 area) are seeded on filter inserts (Costar transwell polycarbonate or PET filters, 0.4 μm pore size) and cultured (DMEM) for 10 to 25 days. Compounds are dissolved in appropriate solvent (like DMSO, 1-20 mM stock solutions). […] The transport solution (TL) is applied to the apical or basolateral donor side for measuring A-B or B-A permeability (3 filter replicates), respectively. Samples are collected at the start and end of experiment from the donor and at various time intervals for up to 2 hours also from the receiver side for concentration measurement by HPLC-MS/MS or scintillation counting. Sampled receiver volumes are replaced with fresh receiver solution.
(§2) Efflux ratio (ER)=permeability B-A/permeability A-B

The test system of the next series is murine hepatocytes. The series can be described thus: Assay E: Stability in murine hepatocytes. It is filed as in vitro ADME, mouse. Conditions: 1 μM. The protocol: The metabolic degradation of the test compound is assayed in a murine hepatocyte suspension.
Murine hepatocytes (typically cryopreserved) are incubated in an appropriate buffer system (e.g. Dulbecco's modified eagle medium plus 3.5 μg glucagon/500 mL, 2.5 mg insulin/500 mL and 3.75 mg/500 mL hydrocortison) containing 5% species serum.
Following a (typically) 30 min preincubation in an incubator (37° C., 10% CO2) 5 μl of test compound solution (80 μM; from 2 mM in DMSO stock solution diluted 1:25 with medium) are added into 395 μl hepatocyte suspension (cell density in the range 0.25-5 Mio cells/mL, typically 1 Mio cells/mL; final concentration of test compound 1 μM, final DMSO concentration 0.05%).
The cells are incubated for six hours (incubator, orbital shaker) and samples (2 μl) are taken at 0, 0.5, 1, 2, 4 and 6 hours. Samples are transferred into acetonitrile and pelleted by centrifugation (5 min). The supernatant is transferred to a new 96-deepwell plate, evaporated under nitrogen and resuspended.
CLint is calculated as follows CL_[…]=Dose/AUC=(C0/CD)/(AUD+clast/k)×1000/60. C0: initial concentration in the incubation [μM], CD: cell density of vital cells [10e6cells/mL], AUD: area under the data [μM×h], clast: concentration of last data point [μM], k: slope of the regression line for parent decline [h−1].
The calculated in vitro hepatic intrinsic clearance can be scaled up to the intrinsic in vivo hepatic Clearance and used to predict hepatic in vivo blood clearance (CL) by the use of a liver model (well stirred model).
CL_[…]_INVIVO[ml/min/kg]=(CL_[…][μL/min/10e6cells]×hepatocellularity[10e6cells/g liver]×liver factor[g/kg bodyweight])/1000
CL[ml/min/kg]=CL_[…]_INVIVO[ml/min/kg]×hepatic blood flow[ml/min/kg]/(CL_[…]_INVIVO[ml/min/kg]+hepatic blood flow[ml/min/kg])
Hepatocellularity,mouse:120×10e6cells/g liver
Liver factor,mouse:55 g/kg bodyweight
Blood flow,mouse:90 ml/(min×kg)

Another series relates to Ramos cells. Conditions: disclosed in WO 2024/020517 [00698]; read-out: cellular activity in Ramos cells IC50; cited from earlier work.
The target in another series is QPCTL (Homo sapiens (Human), UniProt Q9NXS2). Briefly: Assay A: biochemical QPCTL activity assay (MALDI-TOF MS). Conditions: read-out: Inhibition of QPCTL: IC50. The protocol: (§3) QPCT or QPCTL dependent conversion of N-terminal glutamine to pyroglutamate of CD47 was monitored via MALDI-TOF MS. Test compounds were dissolved in 100% DMSO and serially diluted into clear 1,536-well microtiter plates. Enzymatic reactions were set up in assay buffer containing 20 mM Tris pH 7.5, 0.1 mM TCEP, 0.01% BSA, and 0.001% Tween20. […] The plates were incubated for 10 min in a humidified incubator at 24° C. Subsequently, 2.5 μL of CD47 peptide substrate surrogate (^19[…]^33) was added to each well (final concentration: 10 μM for QPCTL/20 μM for QPCT). The plates were mixed for 30 sec at 1,000 rpm and subsequently incubated for 40 min in a humidified incubator at 24° C. […] The plates were sealed with an adhesive foil, mixed for 30 s at 1,000 rpm and stored at room temperature until preparation of the MALDI target plates. […] QPCT or QPCTL activity was monitored by calculating the ratio between product and internal standard signals followed by normalization to high (100% activity) and low (0% activity) controls. Determination of compound potencies was obtained by fitting the dose-response data to a four-parameter logistical equation.
Sequence of QPCTL (Q9NXS2 whole entry): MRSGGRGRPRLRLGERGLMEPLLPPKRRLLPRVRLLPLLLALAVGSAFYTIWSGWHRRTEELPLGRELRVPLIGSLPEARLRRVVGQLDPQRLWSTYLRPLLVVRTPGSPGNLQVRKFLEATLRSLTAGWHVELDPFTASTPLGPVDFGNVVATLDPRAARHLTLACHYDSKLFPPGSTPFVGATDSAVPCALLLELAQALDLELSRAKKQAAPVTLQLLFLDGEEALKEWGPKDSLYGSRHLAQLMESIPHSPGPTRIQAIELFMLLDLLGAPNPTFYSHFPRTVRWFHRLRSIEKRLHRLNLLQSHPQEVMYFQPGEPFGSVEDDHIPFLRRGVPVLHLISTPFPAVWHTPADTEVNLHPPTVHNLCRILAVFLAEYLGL

Series [2] can be described thus: Assay C: Permeability in CACO-2 cells. It is filed as in vitro ADME. Conditions: human, Assay C; for efflux ratio: Caco-2, pH 7.2, permeability B-A/permeability A-B, read-out: Efflux Ratio; for Papp A→B: pH 7.2, CACO-2 cells. On the procedure:
as §1, §2

The subject of another series is CYP3A4 mRNA. Briefly: Assay D: CYP induction screening assay in primary human hepatocytes. It is filed as in vitro ADME. Conditions: 48 h. On the procedure: Cryopreserved plateable human hepatocytes (single donor, BioIVT) were thawed and plated in Collagen-I coated 96-well-plates at a cell density of 0.07 million cells per well.
After a 6 h attachment period, the seeding medium was replaced by serum-free William's medium E supplemented with Matrigel (0.25 mg/ml) and allowed to recover overnight. 24 h post-seeding, serum-free Williams E medium containing the test compound at a final concentration of 10 μM and a final DMSO content of 0.1% and 0.1% DMSO (solvents treated control), respectively, was added to predefined wells. Exposure solutions were renewed after 24 h.
After 48 h of treatment in total, the effect of the test compounds on CYP3A4 mRNA expression was assessed using the QuantiGene Plex Gene Expression Assay. Hepatocytes were lysed and total RNA was extracted using the QuantiGene Sample Processing Kit according to the instructions of the manufacturer.
mRNA quantification was conducted using a customized QuantiGene Plex Panel to analyse CYP3A4 and the housekeeper genes RPL32, EIF4E2 and GUSB according to the instructions of the manufacturer and measured on a Luminex™ instrument. Signal was reported as median fluorescence intensity (MFI), which is proportional to the number of target RNA molecules present in the sample.
For calculation of CYP3A4 mRNA induction, the signal for CYP3A4 was normalized against the geometric mean of the signal obtained for the housekeeper genes for hepatocytes exposed to test compounds in relation to solvent-treated samples according to the following equation:
n-fold induction=(MFI CYP3A4 (treated)/Xgeo MFI (RPL32,EIF4E2,GUSB))/(MFI CYP3A4 (solvent control)/Xgeo MFI (RPL32,EIF4E2,GUSB))

The next series concerns A549 cells. Conditions: disclosed in WO 2023/205173 [00470]; read-out: cellular activity in A549 cells EC50; cited from earlier work.
The target of another series is QPCT (Homo sapiens (Human), UniProt Q16769). Briefly: Assay A: biochemical QPCT activity assay (MALDI-TOF MS). Conditions: read-out: Inhibition of QPCT: IC50. The protocol: as §3
Sequence of QPCT (Q16769 29-361): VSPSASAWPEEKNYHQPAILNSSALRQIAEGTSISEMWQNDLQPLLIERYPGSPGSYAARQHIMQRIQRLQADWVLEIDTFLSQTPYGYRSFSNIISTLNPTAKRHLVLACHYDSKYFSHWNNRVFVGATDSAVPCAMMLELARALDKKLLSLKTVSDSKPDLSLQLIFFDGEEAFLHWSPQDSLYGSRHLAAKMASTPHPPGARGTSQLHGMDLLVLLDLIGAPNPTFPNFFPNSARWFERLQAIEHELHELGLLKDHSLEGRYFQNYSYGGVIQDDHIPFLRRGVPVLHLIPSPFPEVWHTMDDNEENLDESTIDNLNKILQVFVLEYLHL
The next series has as its target isolated QPCTL (Homo sapiens (Human), UniProt Q9NXS2). Conditions: disclosed in WO 2023/205173 [00470]; read-out: inhibitory activity on isolated QPCTL IC50; cited from earlier work.
Series [3] has as its system SIRPα signalling induced by Raji cells. The series can be described thus: Assay B: SIRPα signalling assay using Raji cells. It is filed as cell-based. Conditions: Homo sapiens, read-out: Inhibition of SIRPα signalling induced by Raji cells: IC50. The protocol: Bioassay reagent 1 of the PathHunter Bioassay detection kit (DiscoverX 93-0001) was added to each well of the plate using a multichannel pipette followed by a 15 min incubation at room temperature. Afterwards bioassay reagent 2 was added followed by 60 min incubation at room temperature (incubation in the dark).
The analysis of the data was performed using the luminescence signal generated by betagalactosidase in the PathHunter reporter cell line. The luminescence measurement was done using a Pherastar Multi-Mode Reader.

Sequence of isolated QPCTL (Q9NXS2 whole entry, species assumed): as the sequence (Q9NXS2 whole entry) above

With `Cn1cnnc1C1CCN(c2c(C#N)cccc2-c2ccc(F)nc2)CC1` [(1)/QP5020, reference compound], the results for the concentration for half-maximal inhibition (IC50) (in series [1]; in the series on Ramos cells) were 8 nM and less than 100 nM, respectively. Besides, the “CACO2 Perm.” value in the series on CACO-2 cells is 28.0 10^−6 cm/sec. Moreover, the “Mouse Hepatocyte Stability QH” value with murine hepatocytes came out at 82%.
Regarding `Cn1c(N)nnc1C1CCN(c2c(C#N)cccc2-c2ccc(F)nc2)CC1` [Compound 14, reference compound], the IC50 on QPCTL was 1 nM; at QPCT, less than 1 nM; on isolated QPCTL, less than 1000 nM. Further, the efflux ratio in [2] was 22.2. This compound returned a Papp A→B in [2] of 0.7 ×10⁻⁶ cm/s. The “n-fold induction of CYP3A4 at 10 μM” value with CYP3A4 mRNA amounted to 1.9 n-fold. Further, in the series with A549 cells, the concentration for a half-maximal effect (EC50) was less than 1000 nM. The “Mouse Hepatocyte Stability QH” value in the series on murine hepatocytes amounted to 31%.
Turning to `Cn1cnnc1C1(F)CCN(c2c(C#N)cc(C(C)(C)O)cc2-c2ccc(F)nc2)CC1` [Example 1], the IC50 on QPCTL came out at 1 nM; in [1], 88 nM; in [3], 26 nM; on QPCT it was 1 nM. In series [2], the efflux ratio amounted to 11.9. Besides, the Papp A→B in series [2] was 4.2 ×10⁻⁶ cm/s. Further, the “n-fold induction of CYP3A4 at 10 μM” value in the series on CYP3A4 mRNA worked out at 2.2 n-fold. Moreover, in the series on murine hepatocytes, the “Mouse Hepatocyte Stability QH” value is recorded as 23%.
With `Cn1cnnc1C1CCN(c2c(-c3ccc(F)nc3)ccc(-c3ccnc(N)c3)c2C#N)CC1` [Compound 44, reference compound], the half-inhibitory concentration (IC50) on QPCTL came to 1 nM; in series [1], 67 nM; in series [3], 121 nM; on QPCT, 5 nM. In [2], the efflux ratio is 47.9. In [2], this compound displayed an apical-to-basolateral permeability (Papp A→B) of 0.5 ×10⁻⁶ cm/s. In addition, the “n-fold induction of CYP3A4 at 10 μM” value in the series with CYP3A4 mRNA is reported as 1.0 n-fold. Further, the “Mouse Hepatocyte Stability QH” value with murine hepatocytes came to 65%.
